Assay [1] deals with NSCLC patients. The experiment in a line: BATTLE clinical trial Erlotinib arm, progression-free survival by Erlotinib PLSR model group. Format: in vivo, human.
The test system of assay [2] is tumor xenografts. Kind of assay: Xenograft models of MLN4924 treatment, average plasma concentration needed for tumor stasis, sensitivity rank. Type of assay: in vivo, rats or mice. Conditions: for C avg at stasis: average plasma concentration needed to reach tumor stasis; for Sensitivity Rank: rank of 1 is most sensitive, 16 is least sensitive.
In assay [3] the test system is human melanoma tumors. Kind of assay: Melanoma explants (human tumor xenografts) in mice treated with MLN4924, tumor growth. Format: in vivo. Conditions: subcutaneous treatment. (In general: A xenograft is tissue or cells of one species grown in another, often human tumour cells in immunodeficient mice.)
Assay [4] has as its system Kidney cancer. Kind of assay: Sorafenib phase III clinical trial on Kidney cancer. Type of assay: in vivo, human. Conditions: Sorafenib vs. placebo.
Assay [5] relates to Kidney cancer. Conditions: phase III clinical trial, cited from earlier work.
Assay [6] has as its system NSCLC patients. The experiment in a line: BATTLE clinical trial Sorafenib arm, progression-free survival by Sorafenib PLSR model group. Format: in vivo, human.

Read-outs that look alike come from different tables or passages of the source.

`C#Cc1cccc(Nc2ncnc3cc(OCCOC)c(OCCOC)cc23)c1` [Erlotinib, N-(3-ethynylphenyl)-6,7-bis(2-methoxyethoxy) quinazolin-4-amine] had a PFS in assay [1] (Erlotinib-resistant patients (Erlotinib PLSR signature), BATTLE Erlotinib arm) of 1.84 month. Also, in assay [1] (Erlotinib-sensitive patient group (Erlotinib PLSR signature), BATTLE Erlotinib arm), the “median PFS” value is given as 3.84 month. Further, the Hazard ratio in assay [1] (Erlotinib-sensitive vs Erlotinib-resistant patient group, PFS, p-value 0.09) worked out at 0.43.

Turning to `NS(=O)(=O)OC[C@@H]1C[C@@H](n2ccc3c(N[C@H]4CCc5ccccc54)ncnc32)C[C@@H]1O` [MLN4924, ((1S,2S,4R)-4-{4-[(1S)-2,3-dihydro-1H-inden-1-ylamino]-7H-pyrrolo[2,3-d]pyrimidin-7-yl}-2-hydroxycyclopentyl)methyl sulphamate], the “C avg at stasis” value in assay [2] (A375 xenograft, melanoma) was 6.837 µg/mL; in assay [2] (DLD-1 xenograft, colon adenocarcinoma), 17.476 µg/mL; in assay [2] (DU-145 xenograft, prostate cancer) it was 9.365 µg/mL; in assay [2] (HCT116 (grown in mouse) xenograft, colorectal carcinoma), 1.983 µg/mL; in assay [2] (HCT116 (grown in rat) xenograft, colorectal carcinoma), 1.490 µg/mL; in assay [2] (HL-60 xenograft, promyelocytic leukemia), 2.023 µg/mL. Also, the “C avg at stasis” value amounted to 7.171 µg/mL in assay [2] (HT29 xenograft, colon adenocarcinoma); 6.868 µg/mL in assay [2] (NCI-H69 xenograft, small cell lung cancer); 5.316 µg/mL in assay [2] (NCI-H82 xenograft, small cell lung cancer); 14.722 µg/mL in assay [2] (NCI-H322M xenograft, non-small cell lung carcinoma); 17.070 µg/mL in assay [2] (NCI-H460 xenograft, non-small cell lung carcinoma); 5.968 µg/mL in assay [2] (PC3 xenograft, prostate cancer). The “C avg at stasis” value was found to be 3.691 µg/mL in assay [2] (PHTX-02B xenograft, Breast cancer); 8.501 µg/mL in assay [2] (PHTX-50M xenograft, melanoma); 11.588 µg/mL in assay [2] (PHTX-51M xenograft, melanoma); 9.890 µg/mL in assay [2] (SKOV3 xenograft, ovarian carcinoma). The “Sensitivity Rank” value in assay [2] (A375 xenograft) was 7; in assay [2] (DLD-1 xenograft), 16; in assay [2] (DU-145 xenograft) it was 11; in assay [2] (HCT116 (grown in mouse) xenograft), 2; in assay [2] (HCT116 (grown in rat) xenograft), 1; in assay [2] (HL-60 xenograft), 3. In addition, the “Sensitivity Rank” value in assay [2] (HT29 xenograft) was found to be 9; in assay [2] (NCI-H69 xenograft) it was 8; in assay [2] (NCI-H82 xenograft) it was 5; in assay [2] (NCI-H322M xenograft), 14; in assay [2] (NCI-H460 xenograft), 15; in assay [2] (PC3 xenograft), 6. In addition, the “Sensitivity Rank” value in assay [2] (PHTX-02B xenograft) is 4; in assay [2] (PHTX-50M xenograft), 10; in assay [2] (PHTX-51M xenograft), 13; in assay [2] (SKOV3 xenograft), 12. Moreover, the “Experimental Result with MLN4924 treatment” value in assay [3] (melanoma explant 1, tumor growth in mice) was “Sensitive”; in assay [3] (melanoma explant 2, tumor growth in mice), “Sensitive”; in assay [3] (melanoma explant 3, tumor growth in mice), “Sensitive”; in assay [3] (melanoma explant 4, tumor growth in mice), “Resistant”; in assay [3] (melanoma explant 5, tumor growth in mice) it was “Resistant”; in assay [3] (melanoma explant 6, tumor growth in mice), “Resistant”. Moreover, the “Experimental Result with MLN4924 treatment” value in assay [3] (melanoma explant 7, tumor growth in mice) was “Resistant”; in assay [3] (melanoma explant 8, tumor growth in mice) it was “Resistant”; in assay [3] (melanoma explant 9, tumor growth in mice) it was “Resistant”; in assay [3] (melanoma explant 10, tumor growth in mice), “Resistant”.

In assay [4], `CNC(=O)c1cc(Oc2ccc(NC(=O)Nc3ccc(Cl)c(C(F)(F)F)c3)cc2)ccn1` [Sorafenib] gave a PFS benefit of 2.77 month. Besides, the median survival is given as 167 days in assay [5] (Sorafenib arm (placebo 84 days)) and 5.57 months in assay [5] (Sorafenib arm, days converted to months (placebo 2.80)). The “median PFS survival” value in assay [6] (marker-insensitive group (Sorafenib model), BATTLE Sorafenib arm) is listed as 1.87 months; in assay [6] (marker-sensitive group (Sorafenib model), BATTLE Sorafenib arm) it was 4.53 months. Besides, in assay [6] (marker-sensitive group vs marker-resistant group, BATTLE Sorafenib arm), the PFS survival benefit is given as 2.66 months. In addition, in assay [6] (marker-sensitive vs marker-resistant group, PFS, p-value 0.006), the Hazard-ratio amounted to 0.32.
